Measurements as given in ChEMBL document CHEMBL3526047, “Excretion, metabolism, and pharmacokinetics of 1-(8-(2-chlorophenyl)-9-(4-chlorophenyl)-9H-purin-6-yl)-4-(ethylamino)piperidine-4-carboxamide, a selective cannabinoid receptor antagonist, in healthy male volunteers” (Drug Metab Dispos, 2012).

Legend:
Rattus norvegicus = species: Rattus norvegicus; assay: Drug recovery in rat; assay type: ADME, organism-based; conditions: in vivo
Homo sapiens [1] = assay: AUC (0 to last) in healthy obese adult male human assessed as total radioactivity at 25 mg, po administered as single dose; assay type: ADME, organism-based, Plasma; conditions: in vivo
Cytochrome P450 1A2 = biological target: T1, Cytochrome P450 1A2 (Homo sapiens, UniProt P05177); assay: Drug metabolism assessed as human recombinant CYP1A2-mediated metabolite formation at 10 uM after 60 mins by HPLC method; assay type: ADME; conditions: recombinant enzyme, 1 h
T1 sequence (P05177 whole entry): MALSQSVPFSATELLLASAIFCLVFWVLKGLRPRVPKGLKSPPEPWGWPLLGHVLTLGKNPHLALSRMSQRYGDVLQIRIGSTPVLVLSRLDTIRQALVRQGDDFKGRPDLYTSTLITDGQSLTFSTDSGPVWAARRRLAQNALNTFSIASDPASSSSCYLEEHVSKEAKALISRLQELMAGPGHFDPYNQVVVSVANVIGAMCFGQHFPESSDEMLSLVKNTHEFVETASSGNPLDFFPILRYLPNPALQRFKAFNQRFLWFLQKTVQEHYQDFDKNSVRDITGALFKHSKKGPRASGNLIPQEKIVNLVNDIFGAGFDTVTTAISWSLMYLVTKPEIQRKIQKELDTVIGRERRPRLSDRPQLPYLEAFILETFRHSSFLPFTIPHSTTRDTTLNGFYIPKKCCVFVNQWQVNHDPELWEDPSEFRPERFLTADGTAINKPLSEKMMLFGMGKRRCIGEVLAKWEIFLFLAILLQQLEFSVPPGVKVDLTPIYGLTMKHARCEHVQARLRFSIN

Serum [2] = assay: Drug level in healthy obese adult male human serum at 25 mg, po administered as single dose after 48 hrs by HPLC method; assay type: ADME, organism-based; conditions: in vivo
Mus musculus = species: Mus musculus; assay: Drug recovery in mouse; assay type: ADME, organism-based; conditions: in vivo
Serum [3] = assay: Total drug level in healthy obese adult male human serum at 25 mg, po administered as single dose after 48 hrs by HPLC method; assay type: ADME, organism-based; conditions: in vivo
Serum [4] = assay: AUC in healthy obese adult male human serum at 25 mg, po administered as single dose after 48 hrs by HPLC method; assay type: ADME, organism-based, Plasma; set-up: time < 48 hr, dose 25 mg, route oral; conditions: in vivo
Cytochrome P450 2E1 = Cytochrome P450 2E1 (Homo sapiens, UniProt P05181); assay: Drug metabolism assessed as human recombinant CYP2E1-mediated metabolite formation at 10 uM after 60 mins by HPLC method; assay type: ADME; conditions: recombinant enzyme, 1 h
Chain of Cytochrome P450 2E1 (P05181 whole entry): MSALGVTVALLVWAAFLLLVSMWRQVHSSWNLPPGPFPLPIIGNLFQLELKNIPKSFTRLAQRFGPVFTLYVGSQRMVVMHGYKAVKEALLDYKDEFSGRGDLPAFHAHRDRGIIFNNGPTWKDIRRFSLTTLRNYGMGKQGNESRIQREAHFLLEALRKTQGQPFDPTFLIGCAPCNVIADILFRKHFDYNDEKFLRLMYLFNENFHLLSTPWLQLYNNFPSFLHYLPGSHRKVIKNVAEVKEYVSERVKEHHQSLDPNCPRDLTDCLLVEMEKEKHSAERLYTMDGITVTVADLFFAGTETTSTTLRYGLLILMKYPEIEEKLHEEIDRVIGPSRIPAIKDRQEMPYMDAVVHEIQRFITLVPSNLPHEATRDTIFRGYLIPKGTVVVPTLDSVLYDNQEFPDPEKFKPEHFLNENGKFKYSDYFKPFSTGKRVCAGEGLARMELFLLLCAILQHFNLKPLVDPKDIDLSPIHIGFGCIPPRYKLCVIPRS

Serum [5] = assay: Drug level in healthy obese adult male human serum at 25 mg, po administered as single dose after 12 hrs by HPLC method; assay type: ADME, organism-based; conditions: in vivo
Homo sapiens [6] = assay: AUC (0 to infinity) in healthy obese adult male human assessed as total radioactivity at 25 mg, po administered as single dose; assay type: ADME, organism-based, Plasma; set-up: dose 25 mg, time infinity, route oral; conditions: in vivo
Homo sapiens [7] = assay: Cmax in healthy obese adult male human assessed as total radioactivity at 25 mg, po administered as single dose; assay type: ADME, organism-based; set-up: dose 25 mg, route oral; conditions: in vivo
Cytochrome P450 2C8 = biological target: T2, Cytochrome P450 2C8 (Homo sapiens, UniProt P10632); assay: Drug metabolism assessed as human recombinant CYP2C8-mediated metabolite formation at 10 uM after 60 mins by HPLC method; assay type: ADME; conditions: recombinant enzyme, 1 h
T2 sequence (P10632 whole entry): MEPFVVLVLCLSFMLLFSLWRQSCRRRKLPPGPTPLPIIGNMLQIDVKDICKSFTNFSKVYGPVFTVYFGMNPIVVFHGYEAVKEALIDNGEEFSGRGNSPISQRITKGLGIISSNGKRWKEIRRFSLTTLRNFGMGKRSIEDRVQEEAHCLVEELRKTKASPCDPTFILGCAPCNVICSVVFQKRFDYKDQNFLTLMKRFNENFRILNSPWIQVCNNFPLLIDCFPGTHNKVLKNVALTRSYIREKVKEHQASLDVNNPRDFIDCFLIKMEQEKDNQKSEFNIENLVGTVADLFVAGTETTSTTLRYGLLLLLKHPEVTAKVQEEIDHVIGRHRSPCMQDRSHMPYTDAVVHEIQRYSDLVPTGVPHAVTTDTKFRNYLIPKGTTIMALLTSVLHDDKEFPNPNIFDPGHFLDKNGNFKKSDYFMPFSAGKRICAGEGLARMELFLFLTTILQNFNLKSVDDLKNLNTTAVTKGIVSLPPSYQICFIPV

Canis familiaris = species: Canis familiaris; assay: Drug recovery in dog; assay type: ADME, organism-based, Canis lupus familiaris; conditions: in vivo
Homo sapiens [8] = assay: Tmax in healthy obese adult male human assessed as total radioactivity at 25 mg, po administered as single dose; assay type: ADME, organism-based; conditions: in vivo
Cytochrome P450 2C9 = Cytochrome P450 2C9 (Homo sapiens, UniProt P11712); assay: Drug metabolism assessed as human recombinant CYP2C9-mediated metabolite formation at 10 uM after 60 mins by HPLC method; assay type: ADME; conditions: recombinant enzyme, 1 h
Chain of Cytochrome P450 2C9 (P11712 whole entry): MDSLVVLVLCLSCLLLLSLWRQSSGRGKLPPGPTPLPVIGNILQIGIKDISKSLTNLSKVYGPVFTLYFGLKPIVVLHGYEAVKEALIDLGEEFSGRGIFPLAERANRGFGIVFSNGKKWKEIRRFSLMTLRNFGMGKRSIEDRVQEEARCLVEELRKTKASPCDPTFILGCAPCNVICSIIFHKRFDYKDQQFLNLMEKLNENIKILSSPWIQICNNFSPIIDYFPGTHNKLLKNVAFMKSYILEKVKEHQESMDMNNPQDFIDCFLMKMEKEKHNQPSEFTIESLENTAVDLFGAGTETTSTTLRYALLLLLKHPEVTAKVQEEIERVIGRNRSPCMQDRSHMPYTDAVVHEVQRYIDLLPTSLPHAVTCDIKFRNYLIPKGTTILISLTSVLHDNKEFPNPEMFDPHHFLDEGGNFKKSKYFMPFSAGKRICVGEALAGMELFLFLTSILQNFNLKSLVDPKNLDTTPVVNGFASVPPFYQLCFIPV

Homo sapiens [9] = assay: Terminal elimination half life in healthy obese adult male human assessed as total radioactivity at 25 mg, po administered as single dose; assay type: ADME, organism-based; conditions: in vivo
Cytochrome P450 2D6 = Cytochrome P450 2D6 (Homo sapiens, UniProt P10635); assay: Drug metabolism assessed as human recombinant CYP2D6-mediated metabolite formation at 10 uM after 60 mins by HPLC method; assay type: ADME; conditions: recombinant enzyme, 1 h
Chain of Cytochrome P450 2D6 (P10635 whole entry): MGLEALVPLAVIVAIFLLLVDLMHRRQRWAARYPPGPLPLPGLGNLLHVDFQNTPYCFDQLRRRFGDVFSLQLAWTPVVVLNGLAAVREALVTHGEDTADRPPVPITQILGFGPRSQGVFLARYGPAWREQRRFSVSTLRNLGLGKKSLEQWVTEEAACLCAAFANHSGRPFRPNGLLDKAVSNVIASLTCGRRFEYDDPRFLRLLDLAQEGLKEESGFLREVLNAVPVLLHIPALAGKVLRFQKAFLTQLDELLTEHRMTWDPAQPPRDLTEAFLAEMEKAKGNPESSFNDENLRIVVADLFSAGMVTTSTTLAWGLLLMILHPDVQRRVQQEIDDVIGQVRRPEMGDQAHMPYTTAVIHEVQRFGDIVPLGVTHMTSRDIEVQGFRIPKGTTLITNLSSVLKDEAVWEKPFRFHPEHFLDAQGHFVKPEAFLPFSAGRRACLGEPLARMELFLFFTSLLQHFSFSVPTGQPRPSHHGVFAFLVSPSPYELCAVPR

Serum [10] = assay: Drug level in healthy obese adult male human serum at 25 mg, po administered as single dose after 24 hrs by HPLC method; assay type: ADME, organism-based; conditions: in vivo
Cytochrome P450 1A1 = biological target: T3, Cytochrome P450 1A1 (Homo sapiens, UniProt P04798); assay: Drug metabolism assessed as human recombinant CYP1A1-mediated metabolite formation at 10 uM after 60 mins by HPLC method; assay type: ADME; conditions: recombinant enzyme, 1 h
T3 sequence (P04798 whole entry): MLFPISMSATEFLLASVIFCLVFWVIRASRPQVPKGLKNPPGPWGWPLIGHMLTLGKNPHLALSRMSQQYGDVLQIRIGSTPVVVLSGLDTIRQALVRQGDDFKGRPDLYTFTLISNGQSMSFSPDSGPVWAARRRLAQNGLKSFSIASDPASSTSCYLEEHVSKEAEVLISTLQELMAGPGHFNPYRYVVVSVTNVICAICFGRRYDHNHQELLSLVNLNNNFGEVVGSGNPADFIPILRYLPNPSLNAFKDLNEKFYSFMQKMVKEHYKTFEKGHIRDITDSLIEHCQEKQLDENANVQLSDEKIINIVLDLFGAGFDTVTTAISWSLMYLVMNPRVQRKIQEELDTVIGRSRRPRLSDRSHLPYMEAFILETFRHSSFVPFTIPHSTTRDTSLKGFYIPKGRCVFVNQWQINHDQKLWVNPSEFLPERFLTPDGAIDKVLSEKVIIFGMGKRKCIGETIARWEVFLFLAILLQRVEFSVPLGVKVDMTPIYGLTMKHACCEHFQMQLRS

Serum [11] = assay: Drug level in healthy obese adult male human serum at 25 mg, po administered as single dose after 4 hrs by HPLC method; assay type: ADME, organism-based; conditions: in vivo
Cytochrome P450 2C19 = Cytochrome P450 2C19 (Homo sapiens, UniProt P33261); assay: Drug metabolism assessed as human recombinant CYP2C19-mediated metabolite formation at 10 uM after 60 mins by HPLC method; assay type: ADME; conditions: recombinant enzyme, 1 h
Chain of Cytochrome P450 2C19 (P33261 whole entry): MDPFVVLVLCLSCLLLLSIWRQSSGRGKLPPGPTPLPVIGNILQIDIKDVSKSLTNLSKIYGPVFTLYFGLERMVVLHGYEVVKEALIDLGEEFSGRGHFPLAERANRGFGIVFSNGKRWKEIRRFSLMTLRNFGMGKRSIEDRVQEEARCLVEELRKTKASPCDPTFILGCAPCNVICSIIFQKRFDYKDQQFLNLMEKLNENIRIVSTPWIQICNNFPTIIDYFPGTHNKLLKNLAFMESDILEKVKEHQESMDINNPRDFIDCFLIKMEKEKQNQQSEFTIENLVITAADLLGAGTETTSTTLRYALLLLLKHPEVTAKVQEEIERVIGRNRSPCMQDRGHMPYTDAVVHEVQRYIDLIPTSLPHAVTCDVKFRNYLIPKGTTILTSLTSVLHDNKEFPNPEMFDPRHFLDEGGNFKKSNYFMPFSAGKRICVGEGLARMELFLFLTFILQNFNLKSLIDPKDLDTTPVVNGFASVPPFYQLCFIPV

Serum [12] = assay: Drug level in serum of healthy obese adult male human treated with [14C]CP-945,598 at 25 mg, po administered as single dose after 12 hrs by HPLC method; assay type: ADME, organism-based; conditions: in vivo
Serum [13] = assay: Drug level in serum of healthy obese adult male human treated with [14C]CP-945,598 at 25 mg, po administered as single dose after 24 hrs by HPLC method; assay type: ADME, organism-based; conditions: in vivo
Cytochrome P450 3A4 = Cytochrome P450 3A4 (Homo sapiens, UniProt P08684); assay: Drug metabolism assessed as human recombinant CYP3A4-mediated metabolite formation after 60 mins by HPLC method; assay type: ADME; conditions: recombinant enzyme, 1 h
Chain of Cytochrome P450 3A4 (P08684 whole entry): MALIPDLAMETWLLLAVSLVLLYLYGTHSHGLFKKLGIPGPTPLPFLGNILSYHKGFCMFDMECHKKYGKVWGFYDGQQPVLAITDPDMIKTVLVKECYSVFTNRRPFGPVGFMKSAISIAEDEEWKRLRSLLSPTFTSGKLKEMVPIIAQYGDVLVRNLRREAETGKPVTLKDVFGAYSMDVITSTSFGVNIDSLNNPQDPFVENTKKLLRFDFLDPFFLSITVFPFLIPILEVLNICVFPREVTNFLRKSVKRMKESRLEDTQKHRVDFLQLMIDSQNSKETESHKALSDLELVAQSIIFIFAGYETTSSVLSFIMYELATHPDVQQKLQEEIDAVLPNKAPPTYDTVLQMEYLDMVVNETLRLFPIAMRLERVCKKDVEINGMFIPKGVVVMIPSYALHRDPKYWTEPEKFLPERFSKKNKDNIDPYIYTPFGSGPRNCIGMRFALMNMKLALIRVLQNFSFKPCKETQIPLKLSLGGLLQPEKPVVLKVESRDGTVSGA

Serum [14] = assay: AUC in serum of healthy obese adult male human treated with [14C]CP-945,598 at 25 mg, po administered as single dose after 48 hrs by HPLC method; assay type: ADME, organism-based; set-up: time < 48 hr, dose 25 mg, route oral; conditions: in vivo
Serum [15] = assay: Total drug level in serum of healthy obese adult male human treated with [14C]CP-945,598 at 25 mg, po administered as single dose after 48 hrs by HPLC method; assay type: ADME, organism-based; conditions: in vivo
Serum [16] = assay: Drug level in serum of healthy obese adult male human treated with [14C]CP-945,598 at 25 mg, po administered as single dose after 48 hrs by HPLC method; assay type: ADME, organism-based; conditions: in vivo
Serum [17] = assay: Drug level in serum of healthy obese adult male human treated with [14C]CP-945,598 at 25 mg, po administered as single dose after 4 hrs by HPLC method; assay type: ADME, organism-based; conditions: in vivo
[18] = Drug excretion in feces of healthy obese adult male human treated with [14C]CP-945,598 at 25 mg, po administered as single dose after 0 to 384 hrs hrs by HPLC method; assay type: ADME, organism-based; conditions: in vivo
Homo sapiens [19] = assay: Total drug excretion in healthy obese adult male human treated with [14C]CP-945,598 at 25 mg, po administered as single dose after 0 to 384 hrs hrs by HPLC method; assay type: ADME, organism-based; conditions: in vivo
Homo sapiens [20] = assay: Cmax in healthy obese adult male human treated with [14C]CP-945,598 at 25 mg, po administered as single dose; assay type: ADME, organism-based; set-up: dose 25 mg, route oral; conditions: in vivo
Homo sapiens [21] = assay: AUC (0 to infinity) in healthy obese adult male human treated with [14C]CP-945,598 at 25 mg, po administered as single dose; assay type: ADME, organism-based, Plasma; set-up: dose 25 mg, time infinity, route oral; conditions: in vivo
Homo sapiens [22] = assay: AUC (0 to last) in healthy obese adult male human treated with [14C]CP-945,598 at 25 mg, po administered as single dose; assay type: ADME, organism-based, Plasma; set-up: dose 25 mg, route oral, time 0 - last; conditions: in vivo
Homo sapiens [23] = assay: Tmax in healthy obese adult male human treated with [14C]CP-945,598 at 25 mg, po administered as single dose; assay type: ADME, organism-based; conditions: in vivo
[24] = Drug excretion in urine of healthy obese adult male human treated with [14C]CP-945,598 at 25 mg, po administered as single dose after 0 to 384 hrs hrs by HPLC method; assay type: ADME, organism-based; conditions: in vivo
Homo sapiens [25] = assay: Terminal elimination half life in healthy obese adult male human treated with [14C]CP-945,598 at 25 mg, po administered as single dose; assay type: ADME, organism-based; conditions: in vivo

Compound: CCNC1(C(N)=O)CCN(c2ncnc3c2n[14c](-c2ccccc2Cl)n3-c2ccc(Cl)cc2)CC1.Cl
- Drug recovery (Rattus norvegicus): 98%
- AUClast (Homo sapiens [1]): 8298 ngequiv.hr/g
- Drug metabolism (Cytochrome P450 1A2): metabolite_not_detected
- Drug uptake (Serum [2]): 2.7 ngequiv/g
- Drug recovery (Mus musculus): 98%
- Drug uptake (Serum [3]): 12.1 ngequiv/g
- AUC (Serum [4]): 297 ngequiv.hr/g
- Drug metabolism (Cytochrome P450 2E1): metabolite_not_detected
- Drug uptake (Serum [5]): 8 ngequiv/g
- AUC (Homo sapiens [6]): 9434 ng/h/mL
- Cmax (Homo sapiens [7]): 74 ngequiv/g
- Drug metabolism (Cytochrome P450 2C8): metabolite_not_detected
- Drug recovery (Canis familiaris): 99%
- Tmax (Homo sapiens [8]): 6 h
- Drug metabolism (Cytochrome P450 2C9): metabolite_not_detected
- beta t1/2 (Homo sapiens [9]): 190 h
- Drug metabolism (Cytochrome P450 2D6): metabolite_not_detected
- Drug uptake (Serum [10]): 6.4 ngequiv/g
- Drug metabolism (Cytochrome P450 1A1): metabolite_not_detected
- Drug uptake (Serum [11]): 11.5 ngequiv/g
- Drug metabolism (Cytochrome P450 2C19): metabolite_not_detected

Compound: O=C1CCN(c2ncnc3c2nc(-c2ccccc2Cl)n3-c2ccc(Cl)cc2)CC1
- Drug uptake (Serum [12]): 3.6 ngequiv/g
- Drug uptake (Serum [13]): 7.2 ngequiv/g
- Drug metabolism (Cytochrome P450 3A4): 26.9%
- AUC (Serum [14]): 309 ngequiv.hr/g
- Drug uptake (Serum [15]): 12.6 ngequiv/g
- Drug uptake (Serum [16]): 9.7 ngequiv/g
- Drug uptake (Serum [17]): 4.5 ngequiv/g

Compound: NC(=O)C1(NC2O[C@H](CO)[C@@H](O)[C@H]2O)CCN(c2ncnc3c2nc(-c2ccccc2Cl)n3-c2ccc(Cl)cc2)CC1 (stereo not given in full)
- Drug excretion [18]: 6.3%
- Drug excretion (Homo sapiens [19]): 6.3%

Compound: NC(=O)C1(N)CCN(c2ncnc3c2nc(-c2ccccc2Cl)n3-c2ccc(Cl)cc2)CC1
- Cmax (Homo sapiens [20]): 42 ng/mL
- Drug uptake (Serum [12]): 38.1 ngequiv/g
- AUC (Homo sapiens [21]): 3970 ng·h/mL
- AUClast (Homo sapiens [22]): 3730 ng·h/mL
- Drug uptake (Serum [13]): 31.8 ngequiv/g
- Tmax (Homo sapiens [23]): 6.8 h
- Drug metabolism (Cytochrome P450 3A4): 48.1%
- AUC (Serum [14]): 1401 ngequiv.hr/g
- Drug excretion [18]: 4.5%
- Drug excretion [24]: 2.3%
- Drug excretion (Homo sapiens [19]): 6.8%
- Drug uptake (Serum [15]): 57.3 ngequiv/g
- Drug uptake (Serum [16]): 23.1 ngequiv/g
- beta t1/2 (Homo sapiens [25]): 139 h
- Drug uptake (Serum [17]): 28.4 ngequiv/g
